Measurements published in US9227953B2, “Crystal form” (Glaxo Group Limited, priority 2011, dated 2016).

What was measured:
Assay type in all cases: physicochemical
[1] = relative thermodynamic stability of rilapladib crystal forms; settings: compared with other crystalline forms of rilapladib
[2] = chemical stability of the crystal form
Dynamic Vapor Sorption = settings: product of Example 1(d)
Protocol: The product was characterized in several ways and determined to be the form termed Form 1 rilapladib. It provided an XRPD pattern as represented in FIG. 3, a Raman spectrum as represented in FIG. 4, and a capillary melting point of 116-118° C.

SMILES	thermodynamic stability [1]	chemical stability [2]	hygroscopicity by Dynamic Vapor Sorption (Dynamic Vapor Sorption)
COCCN1CCC(N(Cc2ccc(-c3ccc(C(F)(F)F)cc3)cc2)C(=O)Cn2c(SCc3cccc(F)c3F)cc(=O)c3ccccc32)CC1 [rilapladib Form 3, N-[1-(2-methoxyethyl)-piperidin-4-yl]-2-[2-(2,3-difluorobenzylthio)-4-oxo-4H-quinolin-1-yl]-N-(4′-trifluoromethylbiphenyl-4-ylmethyl)acetamide]	more thermodynamically stable than Form 1 and Form 2	very good chemical stability	–
COCCN1CCC(N(Cc2ccc(-c3ccc(C(F)(F)F)cc3)cc2)C(=O)Cn2c(SCc3cccc(F)c3F)cc(=O)c3ccccc32)CC1 [Form 1 rilapladib, N-[1-(2-methoxyethyl)-piperidin-4-yl]-2-[2-(2,3-difluorobenzylthio)-4-oxo-4H-quinolin-1-yl]-N-(4′-trifluoromethylbiphenyl-4-ylmethyl)acetamide]	–	–	non-hygroscopic
